Source: patent publication US20210322622A1, “COMPOSITIONS AND METHODS FOR PREPARATION OF COMPOSITE POLYMER FILMS ON NON-CONDUCTING SUBSTRATES, INCLUDING BANDAGES, AND THEIR USE FOR TREATING WOUNDS” (The Johns Hopkins University, priority 2018, published 2021)

Experiments:
S. aureus = assay: In vitro zone of inhibition assay of coated K-wires; assay type: cell-based, Staphylococcus aureus; details: 6 weeks room temperature, 6 weeks −20° C., 8 months
Text: A zone of inhibition assay was used as an additional assay to evaluate the in vitro release of antibiotic(s) from the composite coating. Tryptic soy agar bacterial plates were inoculated with S. aureus bacteria cells to yield a bacterial lawn after overnight culture. After bacterial inoculation and before culturing the plates, two identical titanium K-wires loaded with either 10 w/w % Lin, 10 w/w % Van, or 10 w/w % Dap alone, or in combination with Rif were placed in two separate areas on the plate. After culturing the plates at 37° C. for 24 hours, the antimicrobial activity of the eluded antibiotic(s) into the agar was measured as a zone of inhibition (diameter [mm]) of the bacterial growth around the K-wire.
Long-term efficacy of the antimicrobial activity was tested by storing electrospun pins at room temperature for 6 weeks, −20° C. for 6 weeks, and −80° C. for 8 months. Coated pins were protected from light during storage. These pins were then used in the same zone of inhibition assay as described hereinabove. These antimicrobial results were further confirmed with a two-week in vitro release study to determine release kinetics after storage.
Tryptic soy agar (TSA) bacterial plates were inoculated with S. aureus to yield a bacterial lawn after overnight culture. Before culturing the plates, two titanium K-wires each loaded with the same combination of antibiotics from each set were placed in two separate areas on the plate. After culturing at 37° C. for 24 hours, the zone of inhibition (ZOI) (diameter/mm) of bacterial growth were measured.

S. aureus strain Xen36 = assay: MIC of XEN36 for each antibiotic; assay type: cell-based, Staphylococcus aureus; details: S. aureus XEN36; for MIC: Staphylococcus aureus, read-out: MIC of XEN36
Protocol: S. aureus strain Xen36 (PerkinElmer, Waltham, Mass.) previously derived from the clinical bacteremia isolate ATCC 49525 (Wright) was used in all experiments. (Francis et al., 2000). […] (Francis et al., 2000). Xen36 was prepared for inoculation as previously described. (Niska et al., 2013; Pribaz et al. (2012)).

[1] = In vitro release of antibiotics from PLGA/PCL composite coatings on titanium K-wires (HPLC); assay type: physicochemical; details: for release kinetics after storage: stored coated pins, two-week in vitro release
Protocol: (§1) The release rate of the polymer composite film was measured by HPLC. Drug release studies were conducted using coated pins created with the same loading parameters as those used for later in vivo testing (10% (w/w) drug combinations) electrospun for 60 seconds at injection rates of 0.5 mL/h from each needle. Release rate of antibiotics from the composite polymer coating was characterized by placing coated pins in 200 μL pH 7.4 PBS buffer and incubating at 37° C. in an aluminum film-covered incubator to prevent possible light-induced drug degradation. Release media was changed at fixed time points over a period of two weeks and stored in a −20° C. freezer until analysis. Drug concentrations in release media for each day were determined via reverse-phase HPLC using a C-18 column in an Alliance HPLC system and Waters 2996 PDA detector. The mobile phase was a mixture of acetonitrile and water both mixed with 0.1% TFA acid, which was run at a gradient from (15%/85%) to (40%/60%) for a total runtime of 15 minutes per sample for the elution of Van/Rif and Lin/Rif drug loading groups. Elution of the Dap/Rif loading group was conducted using a mobile phase of (49%/51%) of acetonitrile and water both mixed with 0.1% TFA acid for a total run time of 11 minutes per sample. Concentrations of the drugs were quantified using wavelengths of 343 nm for Rif, 254 nm for Lin, 280 nm for Van and 223 nm for Dap using prepared standard curves for all three drugs. […] Quantification was performed through the derivatization of Gentamicin with ninhydrin at 95° C. for 15 minutes and detection with a Biotek Synergy2 plate reader.
Long-term efficacy of the antimicrobial activity was tested by storing electrospun pins at room temperature for 6 weeks, −20° C. for 6 weeks, and −80° C. for 8 months. Coated pins were protected from light during storage. These pins were then used in the same zone of inhibition assay as described hereinabove.
Drug release studies were conducted using coated pins created with the same loading parameters as detailed above. Release kinetics of antibiotics from the composite coating were characterized by placing coated pins in 200 μL of phosphate buffer saline (PBS, pH 7.4) at 37° C. Release media was changed daily over a period of two weeks and stored at −20° C. until analysis. Drug concentrations in release media were measured on days 1, 2, 3, 5, 7, 10 and 14 using a Waters Alliance 2690 HPLC system (Waters Corporation, Milford, Mass.) equipped with an Accucore RP-MS C18 column (100 mm×2.1 mm; Thermo Fisher Scientific) and a Waters 2996 PDA detector. The elution was carried out with a mobile phase of water and acetonitrile both mixed with 0.1% TFA at a flow rate of 1 mL/min at ambient temperature using a linear gradient elution program of 85% water to […] in 15 minutes. Concentrations of the drugs were quantified using wavelengths for Van (280 nm), Lin (254 nm), Dap (224 nm) and Rif (263 nm).

[2] = Release kinetics of antibiotics from nanofiber-hydrogel composite sheet (HPLC); assay type: physicochemical
Text: A sheet device was designed with the goal of reinforcing the implant soft tissue pocket, as well as serving as a platform for the local delivery of antibiotics. The device was composed of a polycaprolactone (PCL) nanofiber sheet core embedded within a nanofiber-hydrogel composite scaffold. The nanofiber core was created via random-pattern electrospinning of PCL dissolved in an organic solvent. An antibiotic-containing version was created by adding 1% w/w of linezolid and rifampicin to the starting PCL solution. All materials containing rifampicin were protected from light exposure to minimize risk of degradation. Next a composite scaffold was prepared by interfacially bonding 500-nm PCL nanofibers suspended within a hyaluronic acid matrix. The nanofiber sheet was then embedded within the composite scaffold and shaped to form a 1-mm thick sheet device. Release kinetics of each antibiotic were assessed using high-performance liquid chromatography (HPLC).

[3] = In vitro release of Gentamicin from PLGA nanofibers / composite coating (ninhydrin); assay type: physicochemical
Protocol: The drug groups tested all included Rifampin (Rif), and the second drug was varied among linezolid (Lin), vancomycin (Van), and daptomycin (Dap). Each drug group combination of Rif and a secondary drug was tested with five pin groups as shown in Sets 1-3 (FIG. 1E). To load the antibiotics into the polymer nanofibers or film, Rif and Lin were dissolved in corresponding 10% w/w PLGA or PCL polymer solution prior to electrospinning. Van or Dap was first dissolved in dimethyl sulfoxide (DMSO) to form a 20% (w/w) solution before being added into their respective polymer solutions to form a suspension. This suspension can be electrospun in a relatively uniform fashion. Suspensions using water as a solvent were also produced using the model drug Gentamicin (Gent). Briefly, Gent was dissolved in DI water to form a 30% (w/w) solution before being added to a PLGA solution dissolved in HFIP. The suspension was stabilized through prolonged sonication and vortexing prior to electrospinning.
as §1, with “drugs. As an example, FIG. 3A and FIG. 3B show the in vitro release profiles of Lin and Rif from the composite coating on titanium K-wire implants.” for “drugs.”

| Compound | antimicrobial activity (zone of inhibition) after storage versus freshly prepared coatings (S. aureus) | MIC (S. aureus strain Xen36) [µg/mL] | release kinetics after storage [1] | complete release from the nanofiber-hydrogel composite sheet [2] [days] | release from the nanofiber-hydrogel composite sheet within the first 24 hours [2] [%] | MIC of XEN36 (S. aureus strain Xen36) | Gentamicin release profile ([3]; 50:50 PLGA) | release of Gentamicin above the MIC, controlled by polymer choice ([3]; 50:50 versus 75:25 PLGA) [days] | Gentamicin release profile ([3]; 75:25 PLGA) | Day 1 release of Gentamicin ([3]; PLGA nanofibers alone) | Day 1 release of Gentamicin ([3]; PLGA nanofibers embedded in PCL film layer) | time Gentamicin concentration at MIC could be sustained ([3]; in vitro release from PLGA nanofibers) | time Rif remains above the MIC, tuned by PCL molecular weight or PCL layer thickness ([1]; in vitro release from composite coating) [days] |
| --- | --- | --- | --- | --- | --- | --- | --- | --- | --- | --- | --- | --- | --- |
| CC(=O)NC[C@H]1CN(c2ccc(N3CCOCC3)c(F)c2)C(=O)O1 [Lin, linezolid] | no significant loss of antimicrobial activity | 2 | no difference in the release kinetics | ≤ 3 | 70 | – | – | – | – | – | – | – | – |
| Gentamicin | – | – | – | – | – | roughly 10 μg/mL | sustained release | 2 to 14 | only a burst release | 80 % of total loading | less than 45 % of total loading | up to 14 days | – |
| CCCCCCCCCC(=O)N[C@@H](Cc1c[nH]c2ccccc12)C(=O)N[C@H](CC(N)=O)C(=O)N[C@@H](CC(=O)O)C(=O)N[C@@H]1C(=O)NCC(=O)N[C@@H](CCCN)C(=O)N[C@@H](CC(=O)O)C(=O)N[C@H](C)C(=O)N[C@@H](CC(=O)O)C(=O)NCC(=O)N[C@H](CO)C(=O)N[C@@H]([C@H](C)CC(=O)O)C(=O)N[C@@H](CC(=O)c2ccccc2N)C(=O)O[C@@H]1C [Dap, daptomycin] | no significant loss of antimicrobial activity | 0.25 | no difference in the release kinetics | – | – | – | – | – | – | – | – | – | – |
| CO[C@H]1/C=C/O[C@@]2(C)Oc3c(C)c(O)c4c(O)c(c(/C=N/N5CCN(C)CC5)c(O)c4c3C2=O)NC(=O)/C(C)=C\C=C\[C@H](C)[C@H](O)[C@@H](C)[C@@H](O)[C@@H](C)[C@H](OC(C)=O)[C@@H]1C [Rif, Rifampin] | no significant loss of antimicrobial activity | 0.5 | reduced after storage at room temperature for six weeks, but not when the pins were stored at −20 °C | ≤ 14 | 70 | – | – | – | – | – | – | – | 2 to 5 |
